Experimental data taken from ChEMBL document CHEMBL5154866 (J Med Chem, 2022).

Columns and labels:
BaF3 [1] = assay: Antiproliferative activity against mouse BaF3 cells expressing ETV6 fused TRKC G623E mutant incubated for 3 days by CCK8 assay; conditions: BaF3, 72 h
BaF3 [2] = assay: Antiproliferative activity against mouse BaF3 cells expressing CD74 fused TRKA G667A mutant incubated for 3 days by CCK8 assay; conditions: BaF3, 72 h
BaF3 [3] = assay: Antiproliferative activity against mouse BaF3 cells expressing CD74 fused TRKA G667S mutant incubated for 3 days by CCK8 assay; conditions: BaF3, 72 h
BaF3 [4] = assay: Antiproliferative activity against mouse BaF3 cells expressing ETV6 fused TRKC G696C mutant incubated for 3 days by CCK8 assay; conditions: BaF3, 72 h
BaF3 [5] = assay: Antiproliferative activity against mouse BaF3 cells expressing ETV6 fused TRKC G696A mutant incubated for 3 days by CCK8 assay; conditions: BaF3, 72 h
BaF3 [6] = assay: Antiproliferative activity against mouse BaF3 cells expressing ETV6 fused TRKC G696S mutant incubated for 3 days by CCK8 assay; conditions: BaF3, 72 h
BaF3 [7] = assay: Antiproliferative activity against mouse BaF3 cells expressing ETV6 fused TRKC G623R mutant incubated for 3 days by CCK8 assay; conditions: BaF3, 72 h
BaF3 [8] = assay: Antiproliferative activity against mouse BaF3 cells expressing ETV6 fused TRKC V573M mutant incubated for 3 days by CCK8 assay; conditions: BaF3, 72 h
[9] = Antiproliferative activity against human KM12-Luc cells assessed as inhibition of cell growth incubated for 3 days by CCK8 assay; format: functional, cell-based; conditions: 72 h
BaF3 [10] = assay: Antiproliferative activity against mouse BaF3 cells assessed as inhibition of cell growth incubated for 3 days by CCK8 assay; format: functional, cell-based; conditions: BaF3, 72 h
BaF3 [11] = assay: cells; conditions: Mus musculus, BaF3, 72 h
BaF3 [12] = assay: Antiproliferative activity against mouse BaF3 cells expressing CD74 fused TRKA assessed as cell growth inhibition incubated for 3 days by CCK8 assay; conditions: BaF3, 72 h
BaF3 [13] = assay: Antiproliferative activity against mouse BaF3 cells expressing ETV6 fused TRKC assessed as cell growth inhibition incubated for 3 days by CCK8 assay; conditions: BaF3, 72 h
BaF3 [14] = assay: cells; conditions: Mus musculus, BaF3, 72 h; remark: listed apart in the source
[15] = molecular target: Epithelial discoidin domain-containing receptor 1 (Homo sapiens, UniProt Q08345); assay: Inhibition of human wild type partial length DDR1(R565 to V876 residue) expressed in bacterial expression system by Kinomescan method
Chain of Epithelial discoidin domain-containing receptor 1 (Q08345 whole entry, the tested form may be a part): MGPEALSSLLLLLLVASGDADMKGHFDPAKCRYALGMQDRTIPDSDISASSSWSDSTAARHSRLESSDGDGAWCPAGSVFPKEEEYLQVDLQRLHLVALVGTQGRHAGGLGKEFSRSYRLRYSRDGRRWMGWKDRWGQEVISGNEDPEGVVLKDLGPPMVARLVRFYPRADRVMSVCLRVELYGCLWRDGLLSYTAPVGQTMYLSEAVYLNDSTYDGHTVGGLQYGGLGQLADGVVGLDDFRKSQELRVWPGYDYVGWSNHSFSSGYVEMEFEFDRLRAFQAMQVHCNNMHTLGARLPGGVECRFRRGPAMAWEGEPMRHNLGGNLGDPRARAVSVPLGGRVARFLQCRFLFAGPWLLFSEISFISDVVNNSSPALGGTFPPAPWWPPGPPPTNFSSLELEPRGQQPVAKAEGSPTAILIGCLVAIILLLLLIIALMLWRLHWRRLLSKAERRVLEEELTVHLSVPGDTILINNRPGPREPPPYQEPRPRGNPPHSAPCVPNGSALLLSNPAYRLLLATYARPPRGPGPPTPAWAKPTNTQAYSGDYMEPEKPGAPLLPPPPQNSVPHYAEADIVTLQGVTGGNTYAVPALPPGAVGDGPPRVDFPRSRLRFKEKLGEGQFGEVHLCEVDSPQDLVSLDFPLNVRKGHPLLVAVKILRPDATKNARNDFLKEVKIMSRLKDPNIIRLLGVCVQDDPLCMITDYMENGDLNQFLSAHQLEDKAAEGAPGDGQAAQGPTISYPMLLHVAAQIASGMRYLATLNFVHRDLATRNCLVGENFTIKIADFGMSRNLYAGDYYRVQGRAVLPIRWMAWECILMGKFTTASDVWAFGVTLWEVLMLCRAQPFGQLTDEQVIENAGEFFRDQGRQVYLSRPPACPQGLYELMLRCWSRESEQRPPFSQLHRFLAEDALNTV

[16] = molecular target: T1, Discoidin domain-containing receptor 2 (Homo sapiens, UniProt Q16832); assay: Inhibition of human wild type partial length DDR2 (V555 to E855 residues) expressed in mammalian expression system by Kinomescan method
T1 sequence (Q16832 whole entry): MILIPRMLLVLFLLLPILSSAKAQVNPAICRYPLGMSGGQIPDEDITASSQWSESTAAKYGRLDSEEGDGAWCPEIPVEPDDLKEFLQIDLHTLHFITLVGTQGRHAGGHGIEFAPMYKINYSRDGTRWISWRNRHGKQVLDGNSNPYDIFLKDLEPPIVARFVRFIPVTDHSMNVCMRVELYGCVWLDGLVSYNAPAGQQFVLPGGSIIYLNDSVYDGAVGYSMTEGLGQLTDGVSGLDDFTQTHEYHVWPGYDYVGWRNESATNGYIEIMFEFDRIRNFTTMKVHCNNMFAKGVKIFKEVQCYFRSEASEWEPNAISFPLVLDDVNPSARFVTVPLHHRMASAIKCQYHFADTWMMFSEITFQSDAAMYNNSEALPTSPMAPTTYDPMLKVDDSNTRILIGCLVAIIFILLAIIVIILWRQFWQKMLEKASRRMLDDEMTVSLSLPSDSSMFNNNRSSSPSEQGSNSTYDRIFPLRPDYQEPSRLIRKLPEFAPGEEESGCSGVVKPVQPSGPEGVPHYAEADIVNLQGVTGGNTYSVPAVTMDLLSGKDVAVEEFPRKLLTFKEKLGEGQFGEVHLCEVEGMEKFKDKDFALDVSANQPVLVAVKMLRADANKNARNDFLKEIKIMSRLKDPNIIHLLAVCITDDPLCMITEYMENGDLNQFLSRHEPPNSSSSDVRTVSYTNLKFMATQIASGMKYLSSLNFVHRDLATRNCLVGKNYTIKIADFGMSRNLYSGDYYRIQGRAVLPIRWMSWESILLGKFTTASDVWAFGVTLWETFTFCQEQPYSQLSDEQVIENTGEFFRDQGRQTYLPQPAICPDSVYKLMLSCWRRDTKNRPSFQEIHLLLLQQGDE

Ephrin type-A receptor 7 = Ephrin type-A receptor 7 (Homo sapiens, UniProt Q15375); assay: Inhibition of human wild type partial length EphA7 (Y608 to S912 residues) expressed in bacterial expression system by Kinomescan method
Chain of Ephrin type-A receptor 7 (Q15375 whole entry, the tested form may be a part): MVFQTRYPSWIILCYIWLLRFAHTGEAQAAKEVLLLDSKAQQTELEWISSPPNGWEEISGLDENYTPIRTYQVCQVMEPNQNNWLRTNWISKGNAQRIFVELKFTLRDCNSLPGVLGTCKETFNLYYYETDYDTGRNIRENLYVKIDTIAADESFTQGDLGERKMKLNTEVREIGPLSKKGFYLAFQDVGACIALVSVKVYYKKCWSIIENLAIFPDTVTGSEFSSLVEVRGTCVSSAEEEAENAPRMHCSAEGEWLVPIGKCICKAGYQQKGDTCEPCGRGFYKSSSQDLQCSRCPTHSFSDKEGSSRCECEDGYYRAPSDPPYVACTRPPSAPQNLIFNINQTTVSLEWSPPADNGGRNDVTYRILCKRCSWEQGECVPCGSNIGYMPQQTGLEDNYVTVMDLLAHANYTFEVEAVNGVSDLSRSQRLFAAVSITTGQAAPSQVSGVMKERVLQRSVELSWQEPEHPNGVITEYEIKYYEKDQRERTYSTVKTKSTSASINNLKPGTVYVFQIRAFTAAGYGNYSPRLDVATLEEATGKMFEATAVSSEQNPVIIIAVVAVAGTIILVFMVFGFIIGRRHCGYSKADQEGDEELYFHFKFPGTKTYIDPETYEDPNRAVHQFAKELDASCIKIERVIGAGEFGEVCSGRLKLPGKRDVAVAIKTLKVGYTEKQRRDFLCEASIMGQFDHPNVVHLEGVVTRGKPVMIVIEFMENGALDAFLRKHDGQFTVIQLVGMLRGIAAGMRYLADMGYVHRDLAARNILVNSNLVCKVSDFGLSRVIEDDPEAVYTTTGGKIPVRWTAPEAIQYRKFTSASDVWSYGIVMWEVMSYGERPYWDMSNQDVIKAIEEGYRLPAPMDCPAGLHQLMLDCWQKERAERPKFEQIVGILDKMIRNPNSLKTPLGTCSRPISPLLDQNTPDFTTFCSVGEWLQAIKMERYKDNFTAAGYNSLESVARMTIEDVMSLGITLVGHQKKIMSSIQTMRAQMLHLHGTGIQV

Angiopoietin-1 receptor = Angiopoietin-1 receptor (Homo sapiens, UniProt Q02763); assay: Inhibition human wild type partial length Tie2 (N804 to T1112 residues) expressed in bacterial expression system by Kinomescan method
Chain of Angiopoietin-1 receptor (Q02763 whole entry, the tested form may be a part): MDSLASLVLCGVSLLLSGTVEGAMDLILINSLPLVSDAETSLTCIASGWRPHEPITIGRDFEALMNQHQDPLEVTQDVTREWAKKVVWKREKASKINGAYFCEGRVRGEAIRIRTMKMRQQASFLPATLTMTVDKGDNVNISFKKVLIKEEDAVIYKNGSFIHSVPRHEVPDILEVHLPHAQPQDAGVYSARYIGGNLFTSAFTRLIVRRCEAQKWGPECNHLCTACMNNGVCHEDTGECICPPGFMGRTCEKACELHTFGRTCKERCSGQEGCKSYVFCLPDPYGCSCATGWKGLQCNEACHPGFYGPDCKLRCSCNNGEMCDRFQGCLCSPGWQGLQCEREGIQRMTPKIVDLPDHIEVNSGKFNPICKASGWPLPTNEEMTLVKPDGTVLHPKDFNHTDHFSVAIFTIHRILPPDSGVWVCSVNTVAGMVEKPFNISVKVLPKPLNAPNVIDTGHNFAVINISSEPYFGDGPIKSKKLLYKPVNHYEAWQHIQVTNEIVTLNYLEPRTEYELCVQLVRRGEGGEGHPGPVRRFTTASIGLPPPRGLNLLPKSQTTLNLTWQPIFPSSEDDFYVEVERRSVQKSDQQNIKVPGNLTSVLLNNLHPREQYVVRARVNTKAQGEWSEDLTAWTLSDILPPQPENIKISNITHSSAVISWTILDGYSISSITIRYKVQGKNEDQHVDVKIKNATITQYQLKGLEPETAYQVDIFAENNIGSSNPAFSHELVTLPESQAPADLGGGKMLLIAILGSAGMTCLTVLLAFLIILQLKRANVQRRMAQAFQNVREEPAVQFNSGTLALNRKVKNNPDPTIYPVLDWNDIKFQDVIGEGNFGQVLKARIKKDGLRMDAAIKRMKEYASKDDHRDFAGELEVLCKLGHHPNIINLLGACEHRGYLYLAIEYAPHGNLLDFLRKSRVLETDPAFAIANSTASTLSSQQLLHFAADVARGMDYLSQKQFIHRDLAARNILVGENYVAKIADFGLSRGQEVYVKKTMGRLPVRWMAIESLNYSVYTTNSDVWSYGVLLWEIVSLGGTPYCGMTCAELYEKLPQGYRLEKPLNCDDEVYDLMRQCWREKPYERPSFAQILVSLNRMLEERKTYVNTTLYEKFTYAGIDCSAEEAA

[17] = AUC (0 to t) in Sprague-Dawley rat at 10 mg/kg, po measured upto 24 hrs by LC-MS/MS analysis; format: ADME, organism-based; parameters: time < 24 hrs, dose 10 mg/kg, route po; conditions: in vivo
[18] = Cmax in Sprague-Dawley rat at 10 mg/kg, po measured upto 24 hrs by LC-MS/MS analysis; format: ADME, organism-based; parameters: dose 10 mg/kg, time < 24 hrs, route po; conditions: in vivo
[19] = molecular target: High affinity nerve growth factor receptor (Homo sapiens, UniProt P04629); assay: Inhibition of N-terminal hexahistidine tagged TRKA (485 to 795 residues) (unknown origin) expressed in Sf9 cells using Ser/Thr 06 peptide as substrate incubated for 1 hr in presence of 400 uM ATP by FRET based Z'-Lyte assay
Chain of High affinity nerve growth factor receptor (Homo sapiens, UniProt P04629) (P04629 whole entry, the tested form may be a part): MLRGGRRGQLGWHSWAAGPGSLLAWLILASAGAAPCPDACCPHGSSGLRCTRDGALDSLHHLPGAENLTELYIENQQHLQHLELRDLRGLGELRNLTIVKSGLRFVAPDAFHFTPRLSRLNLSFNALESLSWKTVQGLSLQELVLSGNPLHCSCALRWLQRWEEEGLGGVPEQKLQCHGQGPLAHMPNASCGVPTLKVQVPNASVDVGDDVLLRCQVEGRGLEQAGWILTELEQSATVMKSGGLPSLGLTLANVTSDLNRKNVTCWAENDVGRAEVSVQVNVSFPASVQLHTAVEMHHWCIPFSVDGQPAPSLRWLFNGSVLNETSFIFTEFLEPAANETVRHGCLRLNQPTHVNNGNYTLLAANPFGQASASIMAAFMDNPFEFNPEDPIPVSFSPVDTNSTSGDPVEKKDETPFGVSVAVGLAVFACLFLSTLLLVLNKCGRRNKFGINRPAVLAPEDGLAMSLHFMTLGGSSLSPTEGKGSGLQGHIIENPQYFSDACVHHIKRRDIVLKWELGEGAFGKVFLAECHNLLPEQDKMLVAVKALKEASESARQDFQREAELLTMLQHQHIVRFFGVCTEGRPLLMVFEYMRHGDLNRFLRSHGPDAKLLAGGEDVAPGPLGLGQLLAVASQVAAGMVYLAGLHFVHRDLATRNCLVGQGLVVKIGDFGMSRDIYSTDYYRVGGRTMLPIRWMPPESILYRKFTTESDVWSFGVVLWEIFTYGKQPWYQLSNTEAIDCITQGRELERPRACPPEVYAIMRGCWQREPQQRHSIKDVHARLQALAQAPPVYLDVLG

[20] = molecular target: High affinity nerve growth factor receptor (Homo sapiens, UniProt P04629, G667C); assay: Inhibition of TRKA G667C mutant (unknown origin) using Ser/Thr 06 peptide as substrate incubated for 1 hr in presence of 400 uM ATP by FRET based Z'-Lyte assay
Chain of High affinity nerve growth factor receptor (Homo sapiens, UniProt P04629, G667C) (P04629 33-796 G667C limits assumed): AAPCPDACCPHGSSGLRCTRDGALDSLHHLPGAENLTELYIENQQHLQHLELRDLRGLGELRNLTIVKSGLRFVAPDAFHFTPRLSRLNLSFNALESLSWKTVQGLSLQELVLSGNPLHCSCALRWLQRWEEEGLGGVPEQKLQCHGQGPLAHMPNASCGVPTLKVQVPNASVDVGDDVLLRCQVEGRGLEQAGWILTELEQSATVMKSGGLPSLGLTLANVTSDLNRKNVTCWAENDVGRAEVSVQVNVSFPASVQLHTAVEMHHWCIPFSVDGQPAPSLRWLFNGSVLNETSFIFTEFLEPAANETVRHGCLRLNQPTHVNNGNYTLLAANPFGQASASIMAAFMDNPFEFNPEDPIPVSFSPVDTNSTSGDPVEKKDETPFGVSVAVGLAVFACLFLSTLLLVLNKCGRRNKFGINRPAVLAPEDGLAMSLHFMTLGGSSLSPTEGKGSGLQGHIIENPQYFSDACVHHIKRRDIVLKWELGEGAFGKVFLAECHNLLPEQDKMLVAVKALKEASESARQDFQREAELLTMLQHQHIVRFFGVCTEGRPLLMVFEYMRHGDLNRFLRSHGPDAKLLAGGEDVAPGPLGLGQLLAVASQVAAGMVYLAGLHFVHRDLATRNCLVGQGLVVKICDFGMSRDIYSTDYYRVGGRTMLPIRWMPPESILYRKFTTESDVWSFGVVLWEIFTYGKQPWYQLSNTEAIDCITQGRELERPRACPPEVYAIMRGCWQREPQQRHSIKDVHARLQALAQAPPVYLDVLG

[21] = molecular target: High affinity nerve growth factor receptor (Homo sapiens, UniProt P04629, G595R); assay: Inhibition of TRKA G595R mutant (unknown origin) by HTRF assay
Chain of High affinity nerve growth factor receptor (Homo sapiens, UniProt P04629, G595R) (P04629 33-796 G595R limits assumed): as the sequence (P04629 33-796 G667C limits assumed) above, with G563R, C635G counted along it

Compound	IC50 (BaF3 [1]) [nM]	IC50 (BaF3 [2]) [nM]	IC50 (BaF3 [3]) [nM]	IC50 (BaF3 [4]) [nM]	IC50 (BaF3 [5]) [nM]	IC50 (BaF3 [7]) [nM]	IC50 (BaF3 [8]) [nM]	IC50 (BaF3 [11]) [nM]	IC50 (BaF3 [12]) [nM]	IC50 (BaF3 [13]) [nM]	IC50 (BaF3 [14]) [nM]	further results
C[C@@H]1CCc2ncc(F)cc2[C@H]2CCCN2c2ccn3ncc(c3n2)C(=O)N1 [SELITRECTINIB]	5.7	3.2	10.5	28.2	2.4	8.5	10.7	41				IC50 (BaF3 [6]): 8.2 nM; IC50 [9]: 2.3 nM; IC50 (BaF3 [10]): > 10000 nM
O=C(Nc1cnn2ccc(N3CCC[C@@H]3c3cc(F)ccc3F)nc12)N1CC[C@H](O)C1 [LAROTRECTINIB]	96	10.1	38.2	332	14.8	> 1000	173	110	9	7	1550	
Cc1cn(-c2cc(NC(=O)c3cc4cc(c3C)C#Cc3cnc5ccc(nn35)N(C)CCNC(=O)CCCCO4)cc(C(F)(F)F)c2)cn1												IC50 [15]: 26.4 nM; IC50 [16]: 313 nM; IC50 (Ephrin type-A receptor 7): 162 nM; IC50 (Angiopoietin-1 receptor): 217 nM; AUC(0-t) at 24 h [17]: 51.6 ng·h/mL; Cmax [18]: 19.1 ng/mL
Cc1c2cc(cc1C(=O)Nc1cc(CN3CCN(C)CC3)cc(C(F)(F)F)c1)OCCCCC(=O)NCCN(C)c1ccc3ncc(n3n1)C#C2								35	140	180	520	IC50 [19]: 7.8 nM; IC50 [20]: 2.7 nM; IC50 [21]: 80.6 nM
